# Assay results published in patent US5998368A, “Derivatives of structurally modified VIP and pharmaceutical compositions containing them” (Yeda Research and Development Co. Ltd., priority 1991, dated 1999).
# Where two headings read alike, the source gives them in different places.
# Experiments:
# [1] = test system: penile erection in normal male; settings: cited from earlier work
# [2] = test system: penile reflexes in castrated rats; assay: Penile reflexes (E2, cups) in castrated rats after transdermal application; assay type: in vivo, rat
# Protocol: (a) The ointment composition was: 31.2 μl 10% Sefsol 318™ (glyceryl monocaprylate), and either 0.24 mg stearoyl-VIP in 31.2 μl DMSO (1-2μl per animal) (SEFS in FIG. 1) or 0.24 rig stearoyl-Nle^17 -VIP in the above (SEFS* in FIG. 1).
# (b) For other analogs described hereinafter 10 μl of solution were used per animal containing 7 μg of active material in a vehicle containing 5% Sefsol and 20% isopropanol.
# In a further set of experiments the effects of stearoyl-VIP compounded with Sefsol 318™ were compared with those of stearoyl-Nle^17 -VIP compounded with Sefsol 318™.
# In a second type of biological experiments the effects of compositions containing other modified VIP conjugates compounded with Sefsol 318™ were tested.
# Rats with reduced sexual potential due to castration were employed. Male rats (250-300 g, about three month old) were kept in a 12-hours light, 12-hours dark cycle. Experiments were always conducted within the dark period, 2-6 hours after the onset of darkness. Male rats were castrated and given partial testosterone replacement (4 μg/100 g body weight) in the form of daily injection for 14-21 consecutive days (the duration of the experiment). Experiments were conducted one week following surgery.
# A procedure was utilized that employed the technique that measures sexual reflexes in the penis, which enables direct evaluation of penile erection following transdermal administration of the drug. Successful reproduction depends, in large part, upon the precise execution of temporally organized, functionally related behavioural units. In these experiments, we concentrated on the final stages of the erection process (reddening of the penis accompanied by its distension and extension leading to complete erection) and monitored the latency time to the first E2 and first cup(^14).
# For testing, each animal was restrained in a supine position with the anterior portion of its body enclosed in a loosely fitting cylinder (7 cm diam). After a belt was secured around the torso, the glans penis was extruded from its sheath and gently held perpendicular to the abdomen by a thin wooden applicator positioned at the posterior of the penis. The legs of the male were held by the observer and this position was maintained throughout the test period. The duration of the session was 45 minutes. The latencies and numbers of E2 and cups were recorded and plotted.
# An E2 is defined as a complete erection which can be followed by cup in which the penile tip is turned into a cup-like structure, whereby the glands flare out such that the penis is wider in its distal portion than its base. This final stage requires E2 and is probably a pre-requisite for ejaculation (13). Using, all the parameters one can obtain a reliable measure of the sexual activity of the tested rat.
# Six to ten animals were tested in this paradigm for each variable. Control animals received ointment compositions without the modified VIP conjugate.
# [3] = Skin penetration and body distribution of 125I-labelled conjugates after topical application to the penis; assay type: in vivo
# Excerpt: These experiments were divided into two groups. In the first group of experiments we performed a time course of the distribution of radioactively labelled stearoyl-Nle^17 -VIP (in Sefsol 318™), applied transdermally to the penis of the animals, in various organs of the body. In the second group of experiments we compared the penetration of radioactively labelled VIP, Nle^17 -VIP St-VIP and St-Nle^17 -VIP with Sefsol 318™ following transdermal application. Two to four animals were used for each data point. The derivatives were labelled with 1251 using the chloramine-T based method^(14).
# In the first group of experiments, stearoyl-Nle^17 -VIP was radioactively labelled with I^125. Each animal received 2.2 million CPM, in 6μl of the radioactive material+ 26μl ointment (ointment No. 4 in Example 5). Two animals were used for each time point in two independent experiments. To avoid oral absorbance, the animal mouth was sealed. At indicated times following topical application, animals were sacrificed and duplicate tissue samples were removed, weighed and counted in a gamma counter. Tissues measured were: lungs (LU), heart (HE), kidneys (KI), liver (Li) and intestine (IN).
# In the second group of experiments compositions of Sefsol 318™ and VIP, St-VIP, Nle^17 -VIP and St-Nle^17 -VIP were prepared. The experiments were performed as in FIG. 7 with the only difference that each animal received a 2.4 million CPM, 2-4 animals were utilized for each variable. Animals were sacrificed 30 minutes after the application of the drug.
# [4] = test system: Sprague Dawley rats; assay: Single dose toxicity, intravenous (tail vein); assay type: in vivo, rat; settings: for acute intravenous median lethal dose (LD50): with vehicle
# Protocol: The single dose toxicity of stearoyl-Nle^17 -VIP injected intravenously, into the tail vein, was investigated in 4 groups of six male and six female rates [Sprague Dawley (S.D.) strain, purchased from Levinstein, Yokneam, Israel).
# Test Groups constitution:
# 2. Vehicle (Sefsol 5% + isopropanol 50%)
# 3. Stcaroyl-Nle^17 -VIP 7 μg/rat + vehicle
# 4. Stearyol-Nle^17 -VIP 7,000 μg/rat + vehicle
# [5] = Stability of the test material; assay type: physicochemical
# [6] = test system: Sprague Dawley rats; assay: Repeated dose toxicity, topical, 13 weeks
# Protocol: The repeated dose toxicity of stearoyl-Nle^17 -VIP administered topically was investigated in 80 SPF (Specified pathogen free) rats divided into 4 groups of ten male and ten female Sprague Dawley (S.D.) strain rats purchased from Harlan, Olac, England.
# Group 1: 7 μg stearoyl-Nle^17 -VIP+vehicle (1× dose)
# Group 2: 700 μg stearoyl-Nle^17 -VIP+vehicle (100× dose)
# Group 4: Vehicle only (5% Sefsol+20% isopropanol)
# [7] = Table 3, topical, 7 μg in 5% Sefsol and 20% isopropanol, castrated rats, 45 min session
# [8] = Group 3, 7 μg/rat + vehicle i.v.
# [9] = daily topical 7, 700, 3500 μg, 13 weeks
# [10] = daily topical 7, 700, 3500 μg, 13 weeks, male and female rats
substance,measurement,setting,value
Vasoactive intestinal peptide (HSDAVFTDNYTRLRKQMAVKKYLNSILN) [VIP],penile response,"[1]; as little as 1 μg into the corpus cavernosum, coupled with sexual stimulation",facilitated full erection
same,penile response,"[1]; up to 20 μg into the corpus cavernosum, without sexual stimulus",caused only slight swelling of the penis but not erection
stearoyl-norleucine^17 -VIP [St-Nle^17 -VIP],No. of E2,[2]; [7],9
same,No. of cups,[2]; [7],27
same,biologically active dose,"[2]; pharmacological experimentation, rat",7 μg per rat
same,latency to first E2,"[2]; topical, in Sefsol 318 ointment (SEFS*), castrated rats, 45 min session, FIG. 1",about 1 minute
same,latency to first cup,"[2]; topical, in Sefsol 318 ointment (SEFS*), castrated rats, 45 min session, FIG. 2",10 min
same,number of E2 during the test period,"[2]; topical, in Sefsol 318 ointment, castrated rats, 45 min session, FIG. 3",34
same,number of cups,"[2]; topical, in Sefsol 318 ointment, castrated rats, 45 min session, FIG. 4",20
same,efficiency according to all the four parameters tested,"[2]; transdermal, Sefsol 318 composition, compared with stearoyl-VIP in Sefsol 318",more efficient
same,"disappearance from organs, time after administration","[3]; 125I-labelled, topical in Sefsol 318, FIG. 7",2.5 h
same,"peak deliveries to organs, time after administration","[3]; 125I-labelled, topical in Sefsol 318, lungs, heart, kidneys, liver, intestine, FIG. 7",15 to 60 min
same,"concentrations in kidney, liver and intestines","[3]; 30 minutes after topical application in Sefsol 318, compared with VIP, Nle17-VIP, St-VIP, FIG. 8",highest concentrations
same,mortality,[4]; [8],No mortality
same,"necrotic reaction at the site of injection (tail skin), share of animals",[4]; [8],58%
same,"necrotic reaction at the site of injection (tail skin), share of animals","[4]; Group 4, 7,000 μg/rat + vehicle i.v.",all the animals
same,mortality,"[4]; Group 4, 7,000 μg/rat + vehicle i.v., within 3 hours after administration",Seven rats (3 male and 4 female out of 12) died
same,acute intravenous median lethal dose (LD50),[4]; combined males and females,"< 7,000 μg"
same,acute intravenous median lethal dose (LD50),[4]; male rats,"7,000 μg/male rat"
same,other side effects,[4]; surviving rats of all groups,No other side effects
same,body weight gain,"[4]; two weeks after i.v. dose, ANOVA versus vehicle control group",increased weight gain
same,stability compared with stearoyl-VIP,[5],more stable
same,Stability,[5]; powder,for a year
same,Stability,[5]; refrigerated in a solubilized form,for at least six weeks
same,adverse effects,[6]; [9],No dose related adverse effects
same,"clinical pathology (hematology, clinical chemistry)",[6]; [9],No dose related or sex related biologically meaningful treatment effects
same,body weight gain and food consumption,[6]; [10],No significant differences
same,mortality,[6]; [10],No mortality associated with drug application
same,organ weight analysis,"[6]; daily topical 7, 700, 3500 μg, 13 weeks, versus control group",No treatment related differences
same,"overall conclusion, serious adverse effects","[6]; daily topical application for 13 weeks, any of the dosages tested",did not cause any serious adverse effects
